# Results as given in article PMC8790063, “Discovery of Benzopyrrolizidines as Promising Antigiardiasic Agents” (Frontiers in Cellular and Infection Microbiology, 2022).
# Values joined by “and” are separate entries in the source; they are usually repeats but may differ in a detail not shown here. Equal values may be shown once.
# Tests used:
# Format in all cases: cell-based
# [1] = system: Giardia lamblia trophozoites; experiment: Morphological studies of trophozoites (bright-field microscopy, transmission electron microscopy); conditions: at the IC50 concentration, 24 hours; for Morphological effects on trophozoites (bright-field microscopy): Giemsa stain
# Procedure: For bright-field microscopy (BFM), 2x10^6 trophozoites were placed in 1.5 mL vials containing antibiotic-free TYI-S-33 culture medium, with or without metronidazole, tinidazole, albendazole, or the library compounds, at the IC50 concentration values. The trophozoites were incubated for 24 hours/37°C and harvested by chilling in ice bath for 15 minutes and centrifuged at 2,000 x g/5 minutes. The bottom cell was washed three times with PBS, and then, placed in glass slides, fixed with MeOH and stained with Giemsa. Finally, the samples were analyzed by BFM. To identify ultrastructural damage, 1x10^6 trophozoites treated as described before were fixed with 2.5% glutaraldehyde and post-fixed with 1% osmium tetroxide in 0.1 M cacodylate buffer, pH 7.2. Afterward, the samples were dehydrated with sequential increasing of ethanol concentrations and then, embedded in epoxy resin. Ultrathin sections of samples were analyzed in a JEOL-JEM-1200 transmission electron microscope coupled to a CCD GATAN camera in the Unidad de Imagenología del Instituto de Fisiología Celular, UNAM.
# HaCaT cells = experiment: Cytotoxicity assay in human keratinocytes (crystal violet); conditions: for IC50: HaCaT human keratinocytes, standard deviation in parenthesis; for Selectivity Index: IC50 HaCaT/IC50 Trophozoites
# Procedure: The in vitro cytotoxicity evaluation of compounds was assayed in immortalized human keratinocytes cell line (HaCat). Briefly, cell cultures were grown in DMEM-F12 media supplemented with 10% decomplemented fetal bovine serum, at 37°C and 5% CO2. Before to test, cells were harvested by centrifugation at 25°C and resuspended in fresh media at 5x10^4 cells/mL. Then, the cells were placed in sterile 24 well clear flat bottom polystyrene TC-treated plates (Corning Costar, #353047) at 3x10^4 cells/well in a volume of 600 µL during 24 hours/37°C at 5% CO2, […] of media was replaced by the same amount of fresh media containing the compounds at concentrations of 100, 90, 80, 70, 60, and 50 µM; DMSO was used as a negative control. The cells were incubated for 48 hours/37°C and 5% CO2. In the end, the cells were washed two times with PBS, fixed and stained by incubating 15 minutes in a solution containing 50% EtOH, 1.75% formaldehyde, 0.75% crystal violet, and 0.25% NaCl. Then, the plates were washed several times with water until removing the colorant excess. After that, the plates were dried for one day at 25°C. Finally, 600 µL of PBS supplemented with 1% SDS was added to wells. The crystal violet incorporated to cells was spectrophotometrically quantified at 570 nm; the IC50 values were calculated from the percentage of death obtained from the different concentrations of assayed compounds. The assay was performed by two independent experiments, each compound was tested by triplicate.
# [2] = system: Giardia lamblia trophozoites; experiment: In vitro cytotoxicity microassay with XTT viability readout on trophozoites; conditions: for % cell death at 12.5 µM (Hits confirmation) / % cell death at 25 µM (Hits confirmation) / % cell death at 50 µM (Hits confirmation) / % cell death at 100 µM (First screening): Table S9; for % cell death at 100 µM (First screening) / % cell death / % cell death 100 µM: 100 µM; for % cell death: first set of 54 compounds (Table S8); for IC50: G. lamblia trophozoites, standard deviation in parenthesis; for % cell death 100 µM: second set of 20 compounds (Table S10)
# Procedure: The cytotoxicity test was performed using sterile 96 well clear flat bottom polystyrene TC-treated microplates (Corning Costar #3596). Every well contained in a triplicate 287.5 µL medium supplemented with a first set of 54 compounds of the collection, control drugs (metronidazole and tinidazole), and negative controls (0.05% DMSO). Afterwards, 12.5 µL of a cell suspension containing 1.6 x 10^7 trophozoites/mL was added to every well to obtain a final number of 2x10^5 cells/well and incubated at 37°C for 24 hours. […] A triplicate of blank was done by filling three wells with only 300 µL culture medium (no cells but DMSO). After that, the plates were chilled for 30 minutes to separate the adhered trophozoites in wells. Later, we transferred 50 µL of this suspension to a second plate containing 250 µL of TYI-S-33 media free of compounds, DMSO or antibiotic per well, and re-cultivated at 37°C for 24 hours. The test was performed by two independent experiments for all compounds.
# >The trophozoites viability was evaluated using the 2,3-Bis(2-methoxy-4-nitro-5-sulfophenyl)-sH-tetrazolium-5-carboxianilide inner salt (XTT) assay. Antigiardiasic activity of each compound was expressed as the death percentage, calculated by using the next equation ([Inc, 2020]):
# % death=[(Abs. of well with 100% viability−Abs. of well with compound)/(Abs. of well with 100% viability−Abs. of blank well)]X 100
# The assay was performed by two independent experiments, where each compound was tested by triplicate.
SMILES,Morphological effects on trophozoites (bright-field microscopy) [1],"IC50 (HaCaT cells; Homo sapiens, HaCaT, 48 h) [µM]",Selectivity Index (HaCaT cells),% cell death at 12.5 µM (Hits confirmation) [2] [%],% cell death at 25 µM (Hits confirmation) ([2]; 25 µM),% cell death at 50 µM (Hits confirmation) ([2]; 50 µM) [%],% cell death at 100 µM (First screening) [2] [%],% cell death [2] [%],IC50 ([2]; Giardia duodenalis) [µM],% cell death 100 µM [2] [%],Ultrastructural effects on trophozoites (transmission electron microscopy) [1],IC50 [2] [µM],"% cell death 25 µM ([2]; 25 µM, second set (Table S10)) [%]","% cell death 50 µM ([2]; 50 µM, second set (Table S10)) [%]",IC50 (HaCaT cells; 48 hours) [µM]
COc1ccc(/C=C2/CC3(C(=O)NC(C)(C)C)c4cc(F)ccc4CN3C2=O)cc1OC (stereo not drawn) [EHV-110-160],affected the nuclear structure and promoted the loss of one nucleus,141,7,2.874,67% and 66.901%,98.178,100.0,100.0,20,–,–,–,–,–,–
"CCS(=O)(=O)CCn1c([N+](=O)[O-])cnc1C [Tinidazole, reference compound]",provoked cell swelling and the voiding of cytoplasmic contents making the cells translucent,60.9,46,98.499,–,–,100.0,100.0,1.3,100.7,–,–,–,–,–
"COc1ccc(/C=C2/CC3(C(=O)N[C@@H](C)c4ccccc4)c4ccccc4CN3C2=O)cc1OC (stereo partly drawn) [EHV-110-174, 2-((Z)-3,4-dimethoxybenzylidene)-3-oxo-N-((S)-1-phenylethyl)-2,3-dihydro-1H-pyrrolo[2,1-a]isoindole-9b(5H)-carboxamide]","the cells are translucent and swelling, with shortening of flagella but without general morphological deformation",130,12,–,98.298%,98.312,100.0,100.0,11,–,damaged the cellular nuclei inducing chromatin condensation and conferring to it a speckled pattern,10.9,–,–,–
COc1ccc(/C=C2/CC3(C(=O)NC(C)(C)C)c4ccccc4CN3C2=O)cc1OC (stereo not drawn) [EHV-110-106],–,–,–,–,–,–,–,–,–,89.2,–,–,8.2,13.4,–
COc1ccc(/C=C2/CC3(C(=O)NC4CCCCC4)c4ccccc4CN3C2=O)cc1OC (stereo not drawn) [EHV-110-154],affected the nuclear structure and promoted the loss of one nucleus,50,1.68,4.160,10.752%,94.654,100.0,100.0,30,–,–,–,–,–,50.6
"Cc1ncc([N+](=O)[O-])n1CCO [Metronidazole, reference compound]",provoked cell swelling and the voiding of cytoplasmic contents making the cells translucent,71.9,27.6,86.562,–,–,100.0,100.0,2.6,100.1,without apparent morphologic changes,–,–,–,–
CCCSc1ccc2nc(NC(=O)OC)[nH]c2c1 [Albendazole],an intense deformation of its general structure was observed,–,–,–,–,–,–,–,–,–,loss of adhesive disc,–,–,–,–
